The source made the active and inactive calls. How the calls were made is not given here.
tested on: host cell cytotoxicity, % cell control, 2% serum; assay: viability of cells used for CXCR4-tropic fusion test – fusion assay cells, 2% serum, TC50, cytotoxicity control for HIV-1 antiviral lead project, dose response (AID 504394)

| Structure (SMILES) | TC50 |
| --- | --- |
| Cc1c2c(=O)n(-c3nc4ccccc4s3)nc-2cc(O)n1Cc1cccnc1 | > 100 µM (inactive) |
| Cc1ccc(-n2cccc2/C=C2/C(=N)N3C(=NC2=O)SN=C3S(C)(=O)=O)cc1 | 66.5 µM |
| O=C(O)c1ccc([C@@H]2Nc3ccc(S(=O)(=O)Nc4cccc5ccccc45)cc3[C@@H]3C=CC[C@@H]32)cc1 | > 100 µM (inactive) |
| O=C(O)CCCN1C(=O)/C(=C\c2ccc(-c3cccc(Cl)c3)o2)SC1=S | > 100 µM (inactive) |
| O=C(O)CCCN1C(=O)/C(=C/c2ccc(-c3ccc(Cl)c(Cl)c3)o2)SC1=S | 12.4 µM |
| Cc1c2c(=O)n(-c3nc4ccccc4s3)nc-2cc(O)n1CCc1ccc(O)cc1 | 30 µM |
| CCOc1ccc(-n2cccc2/C=C2/C(=N)N3C(=NC2=O)SN=C3S(C)(=O)=O)cc1 | 84.7 µM |
| COc1ccc(CCn2c(O)cc3nn(-c4nc5ccccc5s4)c(=O)c-3c2C)cc1 | 63.2 µM |
| Cc1ccc(-c2ccc(/C=C3\SC(=S)N(CCCC(=O)O)C3=O)o2)cc1 | > 100 µM (inactive) |
| O=C(O)CCCN1C(=O)/C(=C\c2ccc(-c3ccc(F)cc3)o2)SC1=S | 38.1 µM |
| Nc1sc2ccccc2[n+]1Cc1ccc(C(=O)O)cc1 | > 100 µM (inactive) |
| CCOC(=O)C1=C(C)N=c2sc(=Cc3ccc(OCC(=O)O)cc3)c(=O)n2C1c1ccc(OC)cc1OC (configuration not stated) | > 100 µM (inactive) |
| O=C(O)CCC(C(=O)O)N1C(=O)/C(=C\c2ccco2)SC1=S (configuration not stated) | > 100 µM (inactive) |
| CS(=O)(=O)C1=NSC2=NC(=O)/C(=C\c3cccn3-c3cccc(F)c3)C(=N)N21 | > 100 µM (inactive) |
| CCOC(=O)C1=C(C)N=c2sc(=Cc3ccc(OCC(=O)O)cc3)c(=O)n2C1c1ccccc1OC (configuration not stated) | > 100 µM (inactive) |
| O=C(O)CCCN1C(=O)/C(=C/c2ccc(-c3cccc(C(F)(F)F)c3)o2)SC1=S | > 100 µM (inactive) |
| Cc1c2c(=O)n(-c3nc4ccccc4s3)nc-2cc(O)n1CCC(C)C | 68.5 µM |
| COc1ccc(Cn2c(O)cc3nn(-c4nc5ccccc5s4)c(=O)c-3c2C)cc1 | 61.8 µM |
| Cc1c2c(=O)n(-c3nc4ccccc4s3)nc-2cc(O)n1Cc1ccc(F)cc1 | 59.9 µM |

| Structure (SMILES) | TC50 |
| --- | --- |
| O=C(O)c1ccc(C[n+]2c(-c3ccccc3)csc2Nc2ccccc2)cc1 | > 100 µM (inactive) |
| CCOC(=O)C1=C(c2ccccc2)N=c2s/c(=C\c3ccc(OCC(=O)O)cc3)c(=O)n2C1c1cccc(OC)c1 (configuration not stated) | 80.4 µM |
| Cc1c2c(=O)n(-c3nc4ccccc4s3)nc-2cc(O)n1C1CC1 | 83.9 µM |
| Cc1c2c(=O)n(-c3nc4ccccc4s3)nc-2cc(O)n1CCc1cccs1 | > 100 µM (inactive) |
| CCOC(=O)C1=C(C)N=c2sc(=Cc3ccc(OCC(=O)O)cc3)c(=O)n2C1c1cc(OC)c(OC)c(OC)c1 (configuration not stated) | > 100 µM (inactive) |
| Cc1c2c(=O)n(-c3nc4ccccc4s3)nc-2cc(O)n1Cc1ccccc1Cl | 38.1 µM |
| CS(=O)(=O)C1=NSC2=NC(=O)/C(=C\c3cccn3-c3ccc(F)cc3)C(=N)N21 | > 100 µM (inactive) |
| CCOC(=O)C1=C(C)N=c2s/c(=C\c3ccc(OCC(=O)O)cc3)c(=O)n2C1c1ccc(OC)c(OCC)c1 (configuration not stated) | 78.4 µM |
| CCOC(=O)C1=C(C)N=c2sc(=Cc3ccc(OCC(=O)O)cc3)c(=O)n2C1c1ccc(F)cc1 (configuration not stated) | > 100 µM (inactive) |
| CCOC(=O)C1=C(C)N=c2sc(=Cc3ccc(OCC(=O)O)cc3)c(=O)n2C1c1ccccc1 (configuration not stated) | > 100 µM (inactive) |
| COc1cccc(C2C(C(=O)Nc3ccccc3)=C(C)N=c3sc(=Cc4ccc(OCC(=O)O)cc4)c(=O)n32)c1 (configuration not stated) | > 100 µM (inactive) |
| CS(=O)(=O)C1=NSC2=NC(=O)/C(=C\c3cccn3-c3ccc(Br)cc3)C(=N)N21 | 46.2 µM |
| COc1ccc(-c2ccc(/C=C3\SC(=S)N(CCCC(=O)O)C3=O)o2)cc1 | 68.3 µM |
| CC1=C(C(=O)OC(C)C)C(c2ccc(Cl)cc2)n2c(s/c(=C\c3ccc(OCC(=O)O)cc3)c2=O)=N1 (configuration not stated) | > 100 µM (inactive) |
| Cc1c2c(=O)n(-c3nc4ccccc4s3)nc-2cc(O)n1Cc1ccncc1 | > 100 µM (inactive) |
| COc1cccc(-n2cccc2/C=C2/C(=N)N3C(=NC2=O)SN=C3S(C)(=O)=O)c1 | > 100 µM (inactive) |
| O=C(O)c1ccc(C[n+]2c(-c3ccc([N+](=O)[O-])cc3)csc2Nc2ccccc2)cc1 | > 100 µM (inactive) |
| CS(=O)(=O)C1=NSC2=NC(=O)/C(=C\c3cccn3-c3cccc(C(F)(F)F)c3)C(=N)N21 | > 100 µM (inactive) |
